Assay results: patent US11226337B2, “Chemoproteomic profiling of protein electrophilic and oxidative post-translational modifications” (Zenagem, LLC, priority 2017, dated 2022)

Experiments:
Assay in all cases: SILAC RP-ABPP
Assay type in all cases: cell-based
[1] = biological target: T1, PITRM1 Presequence protease mitochondrial (Q5JRX3) (Homo sapiens, UniProt Q5JRX3); settings: SILAC H/L, MDA-MB-231
T1 construct: In Situ Labelling of Cells with Hydrazine Probes for MS Experiments; endogenous in cells
T1 sequence (Q5JRX3 29-1037): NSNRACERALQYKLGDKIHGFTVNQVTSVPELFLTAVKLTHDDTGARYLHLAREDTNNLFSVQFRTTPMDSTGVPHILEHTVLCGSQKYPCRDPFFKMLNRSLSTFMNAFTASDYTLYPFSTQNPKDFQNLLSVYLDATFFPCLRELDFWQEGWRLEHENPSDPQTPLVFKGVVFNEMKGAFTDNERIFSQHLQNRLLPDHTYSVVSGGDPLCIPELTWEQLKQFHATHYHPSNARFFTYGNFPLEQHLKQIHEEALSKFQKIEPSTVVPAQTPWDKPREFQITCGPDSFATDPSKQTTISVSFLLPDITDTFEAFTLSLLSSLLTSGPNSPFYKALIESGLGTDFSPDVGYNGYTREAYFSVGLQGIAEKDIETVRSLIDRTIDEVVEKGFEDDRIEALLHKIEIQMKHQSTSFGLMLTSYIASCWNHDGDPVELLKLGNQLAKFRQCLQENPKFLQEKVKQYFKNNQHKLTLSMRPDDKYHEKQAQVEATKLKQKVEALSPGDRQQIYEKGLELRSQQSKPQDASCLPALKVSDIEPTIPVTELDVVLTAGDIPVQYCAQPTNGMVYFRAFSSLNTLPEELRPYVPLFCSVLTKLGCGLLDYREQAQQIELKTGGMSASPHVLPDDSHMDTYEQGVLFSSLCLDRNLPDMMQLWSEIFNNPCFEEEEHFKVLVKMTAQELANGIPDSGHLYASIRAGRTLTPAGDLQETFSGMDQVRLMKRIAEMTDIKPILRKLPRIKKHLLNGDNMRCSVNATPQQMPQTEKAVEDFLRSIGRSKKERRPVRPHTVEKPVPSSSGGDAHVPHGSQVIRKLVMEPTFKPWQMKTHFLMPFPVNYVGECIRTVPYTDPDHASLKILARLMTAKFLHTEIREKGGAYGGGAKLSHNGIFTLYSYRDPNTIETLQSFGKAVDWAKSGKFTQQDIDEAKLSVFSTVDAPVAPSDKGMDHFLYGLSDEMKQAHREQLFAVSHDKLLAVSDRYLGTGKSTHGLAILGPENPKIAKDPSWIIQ
Procedure, shortened: (§1)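 SILAC cells (HEK293T, MDA-MB-231) grown near confluence; heavy: probe 1, 3 mM, 0.5 h; light: equal 3 or probe + 10× 3. Proteomes mixed equimolar, CuAAC with 100 μM biotin-azide, 1 h RT; enrichment, LC-MS. Ratios via CIMAGE-type extraction, ≥3 peptides.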

[2] = biological target: T2, APP Amyloid beta A4 protein (P05067) (Homo sapiens, UniProt P05067); settings: SILAC H/L, MDA-MB-231
T2 construct: shared by both the endogenous and recombinant forms of these proteins; endogenous in cells; host or cells: HEK293T and MDA-MB-231
T2 sequence (P05067 18-770): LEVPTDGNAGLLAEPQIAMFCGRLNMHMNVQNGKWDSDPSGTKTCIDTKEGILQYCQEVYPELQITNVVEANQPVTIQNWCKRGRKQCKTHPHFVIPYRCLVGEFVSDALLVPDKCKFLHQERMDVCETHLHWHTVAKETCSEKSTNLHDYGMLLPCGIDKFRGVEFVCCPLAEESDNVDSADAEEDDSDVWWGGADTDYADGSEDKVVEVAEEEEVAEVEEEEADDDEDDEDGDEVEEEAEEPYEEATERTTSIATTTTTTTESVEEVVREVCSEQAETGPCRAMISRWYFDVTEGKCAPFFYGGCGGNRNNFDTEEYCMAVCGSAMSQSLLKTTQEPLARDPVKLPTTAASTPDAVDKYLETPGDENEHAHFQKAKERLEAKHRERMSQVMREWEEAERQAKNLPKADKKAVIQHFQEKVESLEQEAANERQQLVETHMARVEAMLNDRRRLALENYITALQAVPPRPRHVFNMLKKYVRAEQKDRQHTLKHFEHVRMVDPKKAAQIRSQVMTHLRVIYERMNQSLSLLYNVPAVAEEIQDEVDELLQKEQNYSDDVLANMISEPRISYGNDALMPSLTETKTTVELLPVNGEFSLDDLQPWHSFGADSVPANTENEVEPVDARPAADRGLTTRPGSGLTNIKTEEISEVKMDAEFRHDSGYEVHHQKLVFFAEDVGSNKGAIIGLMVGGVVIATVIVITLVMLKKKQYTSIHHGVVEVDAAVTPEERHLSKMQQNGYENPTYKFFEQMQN
Procedure, shortened: as §1

[3] = biological target: T3, THBS1 Thrombospondin1 (P07996) (Homo sapiens, UniProt P07996); settings: SILAC H/L, MDA-MB-231
T3 construct: In Situ Labelling of Cells with Hydrazine Probes for MS Experiments; endogenous in cells
T3 sequence (P07996 19-1170): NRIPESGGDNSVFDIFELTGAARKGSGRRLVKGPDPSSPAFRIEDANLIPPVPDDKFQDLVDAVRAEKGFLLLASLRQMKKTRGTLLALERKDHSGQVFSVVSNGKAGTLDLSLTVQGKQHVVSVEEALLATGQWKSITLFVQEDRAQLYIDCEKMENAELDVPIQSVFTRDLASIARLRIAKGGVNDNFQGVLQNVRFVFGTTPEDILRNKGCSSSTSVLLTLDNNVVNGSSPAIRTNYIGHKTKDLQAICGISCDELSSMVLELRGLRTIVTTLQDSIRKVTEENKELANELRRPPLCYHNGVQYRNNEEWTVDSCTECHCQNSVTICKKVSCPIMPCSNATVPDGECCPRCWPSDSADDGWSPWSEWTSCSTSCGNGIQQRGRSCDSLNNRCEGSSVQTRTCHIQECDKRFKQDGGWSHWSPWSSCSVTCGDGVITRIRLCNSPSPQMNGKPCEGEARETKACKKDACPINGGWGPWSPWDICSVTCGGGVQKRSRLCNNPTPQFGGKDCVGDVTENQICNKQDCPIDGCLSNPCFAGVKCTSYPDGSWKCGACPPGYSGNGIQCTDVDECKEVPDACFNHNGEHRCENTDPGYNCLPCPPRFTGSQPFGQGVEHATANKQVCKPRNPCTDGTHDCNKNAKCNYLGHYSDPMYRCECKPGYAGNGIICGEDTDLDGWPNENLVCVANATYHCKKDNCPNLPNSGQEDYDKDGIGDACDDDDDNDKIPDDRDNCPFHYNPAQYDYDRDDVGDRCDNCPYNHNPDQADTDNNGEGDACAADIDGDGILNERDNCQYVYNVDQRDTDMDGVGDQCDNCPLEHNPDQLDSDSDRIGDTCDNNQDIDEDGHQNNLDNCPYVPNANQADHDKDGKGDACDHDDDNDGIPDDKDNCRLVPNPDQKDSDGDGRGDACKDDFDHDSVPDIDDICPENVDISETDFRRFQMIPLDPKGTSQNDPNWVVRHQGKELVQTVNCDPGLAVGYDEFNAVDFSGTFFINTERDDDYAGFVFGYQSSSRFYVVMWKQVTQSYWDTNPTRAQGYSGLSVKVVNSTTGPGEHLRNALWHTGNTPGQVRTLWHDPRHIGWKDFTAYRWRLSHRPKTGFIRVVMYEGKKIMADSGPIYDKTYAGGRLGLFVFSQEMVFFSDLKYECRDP
Procedure, shortened: as §1

[4] = biological target: T4, NSFL1C NSFL1 cofactor p47 (Q9UNZ2) (Homo sapiens, UniProt Q9UNZ2); settings: SILAC H/L, MDA-MB-231
T4 construct: In Situ Labelling of Cells with Hydrazine Probes for MS Experiments; endogenous in cells
T4 sequence (Q9UNZ2 whole entry): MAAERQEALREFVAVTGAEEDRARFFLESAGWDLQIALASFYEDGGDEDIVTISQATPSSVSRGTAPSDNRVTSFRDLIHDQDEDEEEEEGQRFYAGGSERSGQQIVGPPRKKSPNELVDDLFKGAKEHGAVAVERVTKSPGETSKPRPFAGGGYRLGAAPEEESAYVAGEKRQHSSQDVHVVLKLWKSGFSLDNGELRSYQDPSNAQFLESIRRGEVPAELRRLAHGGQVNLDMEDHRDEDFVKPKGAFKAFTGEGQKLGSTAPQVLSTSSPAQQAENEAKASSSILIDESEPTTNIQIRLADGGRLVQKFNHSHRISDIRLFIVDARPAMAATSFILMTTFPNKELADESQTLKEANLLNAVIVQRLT
Procedure, shortened: as §1

[5] = biological target: T5, PPA2 Inorganic pyrophosphatase 2 (Q9H2U2) (Homo sapiens, UniProt Q9H2U2); settings: SILAC H/L, HEK293T
T5 construct: In Situ Labelling of Cells with Hydrazine Probes for MS Experiments; endogenous in cells
T5 sequence (Q9H2U2 33-334): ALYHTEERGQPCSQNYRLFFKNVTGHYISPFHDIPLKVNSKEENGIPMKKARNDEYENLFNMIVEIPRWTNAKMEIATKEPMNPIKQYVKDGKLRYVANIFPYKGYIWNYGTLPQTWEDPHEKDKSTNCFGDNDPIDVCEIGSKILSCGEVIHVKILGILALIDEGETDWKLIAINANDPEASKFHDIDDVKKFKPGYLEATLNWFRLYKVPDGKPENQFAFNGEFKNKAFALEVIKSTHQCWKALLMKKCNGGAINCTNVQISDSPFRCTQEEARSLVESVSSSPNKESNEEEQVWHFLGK
Procedure, shortened: as §1

[6] = biological target: T6, DCUN1D5 DCN1like protein 5 (Q9BTE7) (Homo sapiens, UniProt Q9BTE7); settings: SILAC H/L, HEK293T
T6 construct: shared by both the endogenous and recombinant forms of these proteins; endogenous in cells; host or cells: HEK293T and MDA-MB-231
Procedure, shortened: as §1

[7] = biological target: T7, BLVRB Flavin reductase (NADPH) (P30043) (Homo sapiens, UniProt P30043); settings: SILAC H/L, HEK293T
T7 construct: shared by both the endogenous and recombinant forms of these proteins; endogenous in cells; host or cells: HEK293T and MDA-MB-231
Procedure, shortened: as §1

[8] = biological target: T8, CCBL2 Kynurenine oxoglutarate transaminase (Q6YP21) (Homo sapiens, UniProt Q6YP21); settings: SILAC H/L, HEK293T
T8 construct: shared by both the endogenous and recombinant forms of these proteins; endogenous in cells; host or cells: HEK293T and MDA-MB-231
T8 sequence (Q6YP21 whole entry): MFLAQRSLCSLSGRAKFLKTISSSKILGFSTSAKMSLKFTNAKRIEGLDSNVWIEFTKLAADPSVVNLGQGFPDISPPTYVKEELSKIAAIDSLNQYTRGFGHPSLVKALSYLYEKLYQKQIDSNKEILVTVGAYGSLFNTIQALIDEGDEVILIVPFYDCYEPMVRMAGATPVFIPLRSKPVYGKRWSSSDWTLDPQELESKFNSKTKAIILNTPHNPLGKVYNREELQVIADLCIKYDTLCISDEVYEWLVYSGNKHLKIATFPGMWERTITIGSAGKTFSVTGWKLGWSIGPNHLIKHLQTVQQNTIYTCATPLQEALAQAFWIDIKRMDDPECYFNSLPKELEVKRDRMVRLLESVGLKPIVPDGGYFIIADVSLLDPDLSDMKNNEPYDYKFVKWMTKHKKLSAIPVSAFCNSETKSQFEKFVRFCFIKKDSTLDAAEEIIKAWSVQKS
Procedure, shortened: as §1

[9] = biological target: T9, ALDH9A1 4trimethylaminobutyraldehyde (P49189) (Homo sapiens, UniProt P49189); settings: SILAC H/L, HEK293T
T9 construct: shared by both the endogenous and recombinant forms of these proteins; endogenous in cells; host or cells: HEK293T and MDA-MB-231
T9 sequence (P49189 whole entry): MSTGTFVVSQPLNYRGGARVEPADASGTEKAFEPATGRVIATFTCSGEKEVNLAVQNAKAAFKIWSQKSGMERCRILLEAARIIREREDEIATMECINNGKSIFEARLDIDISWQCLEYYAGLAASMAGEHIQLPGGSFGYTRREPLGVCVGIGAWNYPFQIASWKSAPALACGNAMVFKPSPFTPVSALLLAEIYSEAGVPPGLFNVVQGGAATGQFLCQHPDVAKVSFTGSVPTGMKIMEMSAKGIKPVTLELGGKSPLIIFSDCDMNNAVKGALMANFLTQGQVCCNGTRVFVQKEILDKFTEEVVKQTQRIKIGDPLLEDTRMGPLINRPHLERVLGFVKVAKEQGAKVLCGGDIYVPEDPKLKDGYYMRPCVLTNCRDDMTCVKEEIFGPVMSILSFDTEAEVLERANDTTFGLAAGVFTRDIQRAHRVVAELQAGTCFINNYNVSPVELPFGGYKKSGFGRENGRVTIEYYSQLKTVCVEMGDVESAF
Procedure, shortened: as §1

[10] = biological target: T10, VAPA Vesicleassociated membrane (Q9P0L0) (Homo sapiens, UniProt Q9P0L0); settings: SILAC H/L, MDA-MB-231
T10 construct: In Situ Labelling of Cells with Hydrazine Probes for MS Experiments; endogenous in cells
Procedure, shortened: as §1

[11] = biological target: T11, BLMH Bleomycin hydrolase (Q13867) (Homo sapiens, UniProt Q13867); settings: SILAC H/L, HEK293T
T11 construct: In Situ Labelling of Cells with Hydrazine Probes for MS Experiments; endogenous in cells
T11 sequence (Q13867 whole entry): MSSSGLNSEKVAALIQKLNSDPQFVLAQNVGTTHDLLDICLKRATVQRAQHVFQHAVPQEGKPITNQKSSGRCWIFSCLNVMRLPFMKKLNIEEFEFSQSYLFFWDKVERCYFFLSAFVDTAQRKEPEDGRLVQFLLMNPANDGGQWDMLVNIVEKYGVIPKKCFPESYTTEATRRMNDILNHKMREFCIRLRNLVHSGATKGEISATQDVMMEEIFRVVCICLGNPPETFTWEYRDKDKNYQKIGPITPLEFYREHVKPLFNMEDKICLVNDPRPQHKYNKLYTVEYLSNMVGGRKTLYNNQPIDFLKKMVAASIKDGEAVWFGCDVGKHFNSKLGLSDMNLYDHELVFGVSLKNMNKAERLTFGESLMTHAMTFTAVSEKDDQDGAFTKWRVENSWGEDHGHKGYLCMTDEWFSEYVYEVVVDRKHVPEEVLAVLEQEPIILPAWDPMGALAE
Procedure, shortened: as §1

[12] = biological target: T12, GLA Alphagalactosidase A (P06280) (Homo sapiens, UniProt P06280); settings: SILAC H/L, HEK293T
T12 construct: shared by both the endogenous and recombinant forms of these proteins; endogenous in cells; host or cells: HEK293T and MDA-MB-231
Procedure, shortened: as §1

[13] = biological target: T13, CPVL Probable serine carboxypeptidase CPVL (Q9H3G5) (Homo sapiens, UniProt Q9H3G5); settings: SILAC H/L, HEK293T
T13 construct: shared by both the endogenous and recombinant forms of these proteins; endogenous in cells; host or cells: HEK293T and MDA-MB-231
Procedure, shortened: as §1

SMILES: C#CCNN.Cl [probe 1, prop-2-yn-1-ylhydrazine hydrochloride]
- enrichment ratioavg ([1]; probe 1 3 mM 0.5 h vs probe 3): 12
- competition ratioavg ([1]; probe 1 vs probe 1+10x probe 3): 2
- enrichment ratioavg ([2]; probe 1 3 mM 0.5 h vs probe 3): 16
- competition ratioavg ([2]; probe 1 vs probe 1+10x probe 3): 4
- enrichment ratioavg ([3]; probe 1 3 mM 0.5 h vs probe 3): 16
- competition ratioavg ([3]; probe 1 vs probe 1+10x probe 3): 1
- enrichment ratioavg ([4]; probe 1 3 mM 0.5 h vs probe 3): 8
- competition ratioavg ([4]; probe 1 vs probe 1+10x probe 3): 1
- enrichment ratioavg ([5]; probe 1 3 mM 0.5 h vs probe 3): 7
- competition ratioavg ([5]; probe 1 vs probe 1+10x probe 3): 1
- enrichment ratioavg ([6]; probe 1 3 mM 0.5 h vs probe 3): 6
- competition ratioavg ([6]; probe 1 vs probe 1+10x probe 3): 2
- enrichment ratioavg ([7]; probe 1 3 mM 0.5 h vs probe 3): 20
- competition ratioavg ([7]; probe 1 vs probe 1+10x probe 3): 2
- enrichment ratioavg ([8]; probe 1 3 mM 0.5 h vs probe 3): 10
- competition ratioavg ([8]; probe 1 vs probe 1+10x probe 3): 4
- enrichment ratioavg ([9]; probe 1 3 mM 0.5 h vs probe 3): 12
- competition ratioavg ([9]; probe 1 vs probe 1+10x probe 3): 2
- enrichment ratioavg ([10]; probe 1 3 mM 0.5 h vs probe 3): 20
- competition ratioavg ([10]; probe 1 vs probe 1+10x probe 3): 1
- enrichment ratioavg ([11]; probe 1 3 mM 0.5 h vs probe 3): 9
- competition ratioavg ([11]; probe 1 vs probe 1+10x probe 3): 1
- enrichment ratioavg ([12]; probe 1 3 mM 0.5 h vs probe 3): 11
- competition ratioavg ([12]; probe 1 vs probe 1+10x probe 3): 3
- enrichment ratioavg ([13]; probe 1 3 mM 0.5 h vs probe 3): 13
- competition ratioavg ([13]; probe 1 vs probe 1+10x probe 3): 3
